This passage reports GI50 results from ChEMBL document CHEMBL1150865, “Ma'iliohydrin, a cytotoxic chamigrene dibromohydrin from a Philippine Laurencia species” (2001).

Molecules are shown by their SMILES.

The subject of test [1] is NCI/ADR-RES. Description: Growth inhibition of human NCI/ADR-RES cells. The class given is functional.
Test [2] is described as follows: Growth inhibition of human NCI60 cells. The class given is functional.

Consider `C=C1C[C@@H](O)[C@@H](Br)C(C)(C)[C@@]12C=C[C@@](O)(C(Br)Br)CC2` [MAILIOHYDRIN], for which the values for the GI50 in test [1] and in test [2] were 0.01 µM and 10 µM, respectively.

Usually GI50 stands for the concentration that inhibits growth by half. Low values mean greater sensitivity of the cells, high ones lower sensitivity of the cells.
